In PubChem BioAssay AID180 (DTP/NCI, 2004):
Several values for one entry are separate records, joined by “and”; a condition that tells them apart may be missing. Equal entries are not always repeated.

Test system: BDF1 mice, Adenocarcinoma 755 s.c., tumor weight T/C
Experiment: NCI In Vivo Anticancer Drug Screen. Data for tumor model Adenocarcinoma 755 (subcutaneous) in B6D2F1 (BDF1) mice
Conditions: endpoint: mean tumor weight, higher = larger tumour
Summary of the method: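 Readout: T/C, i.e. treated-group measurement over vehicle-control measurement. Endpoint is survival or tumor size in tumor-bearing mice given compound.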

CC(C)n1cnc2c(=S)nc[nH]c21
T/C (dose: 0.2 mg/kg/injection, schedule: Q01DX011 (ip), vehicle: carboxymethylcellulose (CMC)): 114 % of control
T/C (dose: 0.39 mg/kg/injection, schedule: Q01DX011 (ip), vehicle: carboxymethylcellulose (CMC)): 67 % of control
T/C (dose: 0.45 mg/kg/injection, schedule: Q01DX011 (ip), vehicle: carboxymethylcellulose (CMC)): 63 % of control
T/C (dose: 0.78 mg/kg/injection, schedule: Q01DX011 (ip), vehicle: carboxymethylcellulose (CMC)): 111 % of control
T/C (dose: 0.9 mg/kg/injection, schedule: Q01DX011 (ip), vehicle: carboxymethylcellulose (CMC)): 62 % of control
T/C (dose: 0.9 mg/kg/injection, schedule: Q01DX011 (oral), vehicle: carboxymethylcellulose (CMC)): 52 % of control
T/C (dose: 1.56 mg/kg/injection, schedule: Q01DX011 (ip), vehicle: carboxymethylcellulose (CMC)): 50 % of control
T/C (dose: 1.8 mg/kg/injection, schedule: Q01DX011 (ip), vehicle: carboxymethylcellulose (CMC)): 15 % of control
T/C (dose: 1.8 mg/kg/injection, schedule: Q01DX011 (oral), vehicle: carboxymethylcellulose (CMC)): 11 % of control
T/C (dose: 3.12 mg/kg/injection, schedule: Q01DX011 (ip), vehicle: carboxymethylcellulose (CMC)): 9 % of control
T/C (dose: 3.6 mg/kg/injection, schedule: Q01DX011 (ip), vehicle: carboxymethylcellulose (CMC)): 1 % of control
T/C (dose: 3.6 mg/kg/injection, schedule: Q01DX011 (oral), vehicle: carboxymethylcellulose (CMC)): 5 % of control
T/C (dose: 3.62 mg/kg/injection, schedule: Q01DX011 (ip), vehicle: carboxymethylcellulose (CMC)): 7 % of control and 14 % of control
T/C (dose: 6.25 mg/kg/injection, schedule: Q01DX011 (ip), vehicle: carboxymethylcellulose (CMC)): 6 % of control
T/C (dose: 7.25 mg/kg/injection, schedule: Q01DX011 (ip), vehicle: carboxymethylcellulose (CMC)): 3 % of control and 6 % of control
T/C (dose: 7.25 mg/kg/injection, schedule: Q01DX011 (oral), vehicle: carboxymethylcellulose (CMC)): 11 % of control
T/C (dose: 12.5 mg/kg/injection, schedule: Q01DX011 (ip), vehicle: carboxymethylcellulose (CMC)): 3 % of control
T/C (dose: 14.5 mg/kg/injection, schedule: Q01DX011 (ip), vehicle: carboxymethylcellulose (CMC)): 1 % of control
T/C (dose: 25.0 mg/kg/injection, schedule: Q01DX011 (ip), vehicle: carboxymethylcellulose (CMC)): 8 % of control
T/C (dose: 29.0 mg/kg/injection, schedule: Q01DX011 (oral), vehicle: carboxymethylcellulose (CMC)): 2 % of control
T/C (dose: 50.0 mg/kg/injection, schedule: Q01DX011 (ip), vehicle: carboxymethylcellulose (CMC)): 3 % of control and 6 % of control

Nc1n[se]nc1C(=O)O
T/C (dose: 0.75 mg/kg/injection, schedule: Q01DX011 (ip), vehicle: carboxymethylcellulose (CMC)): 82 % of control

O=c1[nH]cc(N(CCCl)CCCl)c(=O)[nH]1
T/C (dose: 0.17 mg/kg/injection, schedule: Q01DX011 (ip), vehicle: carboxymethylcellulose (CMC)): 82 % of control
T/C (dose: 0.21 mg/kg/injection, schedule: Q01DX011 (ip), vehicle: carboxymethylcellulose (CMC)): 93 % of control and 94 % of control
T/C (dose: 0.34 mg/kg/injection, schedule: Q01DX011 (ip), vehicle: carboxymethylcellulose (CMC)): 86 % of control
T/C (dose: 0.42 mg/kg/injection, schedule: Q01DX011 (ip), vehicle: carboxymethylcellulose (CMC)): 53 % of control and 54 % of control
T/C (dose: 0.67 mg/kg/injection, schedule: Q01DX011 (ip), vehicle: carboxymethylcellulose (CMC)): 45 % of control
T/C (dose: 0.68 mg/kg/injection, schedule: Q01DX011 (ip), vehicle: carboxymethylcellulose (CMC)): 77 % of control and 80 % of control
T/C (dose: 0.83 mg/kg/injection, schedule: Q01DX011 (ip), vehicle: carboxymethylcellulose (CMC)): 58 % of control
T/C (dose: 1.11 mg/kg/injection, schedule: Q01DX011 (ip), vehicle: carboxymethylcellulose (CMC)): 59 % of control
T/C (dose: 1.13 mg/kg/injection, schedule: Q01DX011 (ip), vehicle: carboxymethylcellulose (CMC)): 40 % of control
T/C (dose: 1.35 mg/kg/injection, schedule: Q01DX011 (ip), vehicle: carboxymethylcellulose (CMC)): 22 % of control
T/C (dose: 1.67 mg/kg/injection, schedule: Q01DX011 (ip), vehicle: carboxymethylcellulose (CMC)): 18 % of control
T/C (dose: 1.69 mg/kg/injection, schedule: Q01DX011 (ip), vehicle: carboxymethylcellulose (CMC)): 27 % of control and 28 % of control

Cn1c(N)c(N=O)c(=O)n(C)c1=O
T/C (dose: 175.0 mg/kg/injection, schedule: Q01DX011 (oral), vehicle: other): 99 % of control
T/C (dose: 250.0 mg/kg/injection, schedule: Q01DX011 (ip), vehicle: carboxymethylcellulose (CMC)): 81 % of control
T/C (dose: 350.0 mg/kg/injection, schedule: Q01DX011 (ip), vehicle: carboxymethylcellulose (CMC)): 28 % of control
T/C (dose: 350.0 mg/kg/injection, schedule: Q01DX011 (oral), vehicle: other): 80 % of control
T/C (dose: 1400.0 mg/kg/injection, schedule: Q01DX011 (oral), vehicle: methylcellulose (MC)): 105 % of control
T/C (dose: 2000.0 mg/kg/injection, schedule: Q01DX011 (oral), vehicle: other): 74 % of control
T/C (dose: 2800.0 mg/kg/injection, schedule: Q01DX011 (oral), vehicle: other): 118 % of control

c1ccc2c(c1)ccc1cc3c(ccc4ccccc43)cc12
T/C (dose: 12.5 mg/kg/injection, schedule: Q01DX011 (ip), vehicle: methylcellulose (MC)): 24 % of control
T/C (dose: 25.0 mg/kg/injection, schedule: Q01DX011 (ip), vehicle: methylcellulose (MC)): 44 % of control
T/C (dose: 25.0 mg/kg/injection, schedule: Q01DX011 (ip), vehicle: other): 60 % of control
T/C (dose: 50.0 mg/kg/injection, schedule: Q01DX011 (ip), vehicle: other): 42 % of control
T/C (dose: 100.0 mg/kg/injection, schedule: Q01DX011 (ip), vehicle: other): 36 % of control
T/C (dose: 400.0 mg/kg/injection, schedule: Q01DX011 (ip), vehicle: methylcellulose (MC)): 24 % of control and 25 % of control
T/C (dose: 600.0 mg/kg/injection, schedule: Q01DX011 (ip), vehicle: methylcellulose (MC)): 31 % of control
T/C (dose: 600.0 mg/kg/injection, schedule: Q01DX011 (ip), vehicle: other): 12 % of control
